The values below are quoted from earlier work in patent publication US20150132347A1, “TREATING INFLAMMATORY CONDITIONS AND IMPROVING ORAL HYGIENE USING METAL MODULATORS WITH METHYLSULFONYLMETHANE AS TRANSPORT ENHANCER” (priority 2012, published 2015).

For this data set the following is noted: in water @ 79° F.

For `CS(C)(=O)=O` [MSM, methylsulfonylmethane], the water solubility was 34 % w/v.
